What was measured:
[1] = molecular target: T1, human D4 receptor (D4.2 sub-type) (Homo sapiens, UniProt P21917, DEL265-296); experiment: Dopamine D4 receptor binding assay (displacement of 3H-spiperone); details: 3H-spiperone 0.25 nM, transfected with human D4.2, room temperature, 90 min; read-out: Receptor affinity D4 (Ki)
T1 construct: expressed in transfected cells; host or cells: HEK 298 (so in the source)
T1 sequence (P21917 with tags, fused parts or gaps DEL265-296): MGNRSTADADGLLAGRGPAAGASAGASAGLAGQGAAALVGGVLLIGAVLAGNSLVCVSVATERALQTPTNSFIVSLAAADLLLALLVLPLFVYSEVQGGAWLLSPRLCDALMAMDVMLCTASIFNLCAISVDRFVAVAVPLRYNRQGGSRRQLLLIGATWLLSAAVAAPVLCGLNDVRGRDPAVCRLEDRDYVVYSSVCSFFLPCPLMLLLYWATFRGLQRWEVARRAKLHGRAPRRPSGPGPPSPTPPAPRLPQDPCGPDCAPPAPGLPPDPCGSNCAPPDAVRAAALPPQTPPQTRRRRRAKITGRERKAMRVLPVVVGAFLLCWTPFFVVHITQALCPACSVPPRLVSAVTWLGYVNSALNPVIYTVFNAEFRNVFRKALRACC

[2] = molecular target: T2, human D2 receptor (short isoform) (Homo sapiens, UniProt P14416); experiment: Dopamine D2 receptor binding assay (displacement of 3H-spiperone); details: 3H-spiperone 0.25 nM, GH4C1 cells transfected with human D2 short isoform, room temperature, 90 min; read-out: Receptor affinity D2 (Ki)
T2 construct: expressed in transfected cells
T2 sequence (P14416 1-414 isoform P14416-2): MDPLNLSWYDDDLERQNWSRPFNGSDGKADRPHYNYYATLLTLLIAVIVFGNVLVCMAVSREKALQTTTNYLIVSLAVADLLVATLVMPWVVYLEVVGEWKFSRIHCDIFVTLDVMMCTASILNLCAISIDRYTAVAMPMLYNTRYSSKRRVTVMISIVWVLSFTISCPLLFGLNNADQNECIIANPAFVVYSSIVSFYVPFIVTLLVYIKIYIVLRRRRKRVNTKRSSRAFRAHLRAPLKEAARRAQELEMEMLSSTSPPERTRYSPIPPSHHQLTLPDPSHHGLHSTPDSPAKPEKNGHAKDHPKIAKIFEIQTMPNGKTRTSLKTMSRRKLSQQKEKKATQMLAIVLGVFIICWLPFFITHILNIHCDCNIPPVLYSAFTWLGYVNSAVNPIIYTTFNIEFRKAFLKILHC

[3] = molecular target: 5-HT2 receptor (Rattus norvegicus, UniProt P14842); experiment: 5-HT2 receptor binding assay (displacement of 3H-ketanserin)
Sequence of 5-HT2 receptor (P14842 whole entry): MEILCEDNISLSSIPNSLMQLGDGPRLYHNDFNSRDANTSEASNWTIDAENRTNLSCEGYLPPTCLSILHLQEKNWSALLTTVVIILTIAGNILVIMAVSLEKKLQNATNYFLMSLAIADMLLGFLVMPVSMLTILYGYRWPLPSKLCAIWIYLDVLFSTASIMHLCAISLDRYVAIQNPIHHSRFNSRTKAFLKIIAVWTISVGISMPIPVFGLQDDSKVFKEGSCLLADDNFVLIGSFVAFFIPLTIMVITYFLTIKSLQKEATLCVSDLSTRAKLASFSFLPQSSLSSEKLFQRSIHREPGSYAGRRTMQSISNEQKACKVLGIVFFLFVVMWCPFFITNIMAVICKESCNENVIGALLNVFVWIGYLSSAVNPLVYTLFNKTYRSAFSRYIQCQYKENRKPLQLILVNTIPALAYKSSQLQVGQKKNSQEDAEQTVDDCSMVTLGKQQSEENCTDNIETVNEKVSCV

[4] = molecular target: muscarinic M1/M2 receptor; experiment: Muscarinic M1/M2 receptor binding assay (displacement of 3H-QNB); details: 3H-QNB 0.126 nM, rat frontal cortex membranes, 32° C., 60 min, pH 7.4; read-out: Receptor affinity M1/M2 (Ki)

Row | Ki [1] [µM] | Ki [2] [µM] | Ki [3] [µM] | Ki [4] [µM] | Structure (SMILES)
1 | 4.77 | 4.71 | 1.6 | 0.041 | CN1CC2CC1CN2C1=Nc2cc(Cl)c(Cl)cc2Nc2ccccc21 (stereo not drawn) [7,8-dichloro-11-(2-methyl-2,5-diazabicyclo(2.2.1)hept-5-yl)-dibenzo[b,e][1,4]diazepine]
2 | 4.77 | 4.52 | 1.02 | 0.028 | CN1CC2CC1CN2C1=Nc2cc(Cl)ccc2Oc2ccccc21 (stereo not drawn) [8-chloro-11-(2-methyl-2,5-diazabicyclo(2.2.1)hept-5-yl)-dibenz[b,f][1,4]oxazepine]
3 | 0.632 | 1.33 | 3.67 | 0.882 | c1ccc(CN2CC3CC2CN3C2=Nc3ccccc3Oc3ccccc32)cc1 (stereo not drawn) [11-(2-benzyl-2,5-diazabicyclo(2.2.1)hept-5-yl)-dibenz[b,f][1,4]oxazepine]
